Test results published in patent publication US7615361B2, “Toxicity screening methods” (Ceetox, Inc., priority 2006, dated 2009).

Assays:
[1] = Intracellular total glutathione (GSH); conditions: human
Experimental: (§1) Intracellular Glutathione (GSH) Levels: Intracellular glutathione levels were determined essentially as described by Griffith (1980) with modifications. At the end of the exposure period, the medium was removed from the cells and metaphosphoric acid (MPA) was added to each well. Plates were then shaken for 5 min at room temperature and stored at −20° C. until needed.
(§2) The sample plates were thawed just prior to analysis and centrifuged at >2000×g for at least 2 min. Sample aliquots were removed and transferred to a clean 96-well plate along with appropriate standard curve controls. Sample pH was neutralized just prior to analysis and each well received an aliquot of sodium phosphate reaction buffer containing EDTA, DTNB, NADPH, and glutathione reductase. The plates were mixed for 15-30 min at room temperature and glutathione content was determined calorimetrically with a Packard Fusion or equivalent reader at 415 nm.
(§3) Intracellular Glutathione (GSH) Levels: The assay is based on the concept that all GSH is oxidized to GSSG by DTNB reagent. Two molecules of GSH are required to make one molecule of GSSG. Total GSH was determined by reducing GSSG to 2GSH with glutathione reductase. A standard curve was prepared with oxidized glutathione (GSSG) over a range of concentrations. These concentrations are then converted to glutathione equivalents (GSX) essentially by multiplying the GSSG standard concentrations by 2. The amount of GSX expressed as pmoles/well was determined using the standard curve and regression analysis.
(§4) The test compound consisted of two parts mixed in a constant ratio of 5:1. The final test mixture consisted of Test mix 1 and Test mix 2, which were received as frozen solutions. The test mixture was tested in a ratio of 5:1 COMP A in five different cell types which included the following: SK-MEL28, human hepatocytes, HUVEC, C32, and NHEM cells. Cells were seeded into 96-well plates and cultured in medium containing 10% bovine serum. Following an equilibration period of 48 hr, the cells were treated with the test compound mix at concentrations of COMP A (μg/mL)=(250:50), (125:25), (25:12.5), (12.5:2.5), (2.5:1.25), (1.25:0.25), and (0.25:0.05) for 24 hr (overnight) at 37° C. in 5% CO2. […] Following an equilibration period of 4 hr, the cells were treated with the test compound mix at concentrations of COMP A (μg/mL)=(250:50), (125:25), (25:12.5), (12.5:2.5), (2.5:1.25), (1.25:0.25), and (0.25:0.05) for 24 hr (overnight) at 37° C. in 5% CO2.
(§5) Experimental Protocol: The test compounds were shipped on dry ice for testing. The compounds were stored frozen at −80° C. until needed. Dosing solutions were prepared in complete culture medium. SK-MEL28, human hepatocytes, HUVEC, C32, and NHEM cells were used as the test systems. Cells were seeded into 96-well plates and allowed to equilibrate for approximately 48 hr. Following the equilibration period the cells were exposed to the test compound mix at concentrations of COMP A (μg/mL)=(250:50), (125:25), (25:12.5), (12.5:2.5), (2.5:1.25), (1.25:0.25), and (0.25:0.05). […] Following the exposure period, the cells or their supernatant (culture medium) were analyzed for changes in cell proliferation, membrane leakage, mitochondrial function, oxidative stress, and apoptosis. The resultant exposure concentration response curves were graphed and analyzed for determining the concentration that produced a half maximal response or TC50.

[2] = test system: SK-MEL28 cells; test: Intracellular total glutathione (GSH)
Experimental: as §1, §2, §3, §4, §5

[3] = test system: SK-MEL28 cells; test: Membrane lipid peroxidation (8-isoprostane ELISA)
Experimental: Lipid Peroxidation Measured as 8-Isoprostane (8-ISO): 8-ISO levels were determined using an ELISA. 8-ISO is a member of a family of eicosanoids produced non-enzymatically by random oxidation of tissue phospholipids by oxygen radicals. Therefore, an increase in 8-ISO is an indirect measure of increased lipid peroxidation (Vacchiano and Tempel, 1994). At the end of the exposure period, plates were either analyzed immediately or stored at −80° C. until needed for analysis. Color development, which is […] to the amount of 8-ISO present in the sample, was read on a Packard Fusion or equivalent plate reader at 415 nm.
Lipid Peroxidation Measured as 8-Isoprostane (8-ISO): Background absorbance produced from Ellman's reagent is subtracted from all wells. Non-specific binding is subtracted from the maximum binding wells to give a corrected maximum binding expressed as Bo. The percent of bound (B) relative to maximum binding capacity (Bo) for all unknown samples and for standards was determined an expressed as (% B/Bo). The % B/Bo for standards was plotted against the log of 8-ISO added to yield the final standard curve. This curve was used to convert % B/Bo to pg 8-ISO/mL of sample.
(§6) The test compound consisted of two parts mixed in a constant ratio of 5:1. The final test mixture consisted of Test mix 1 and Test mix 2, which were received as frozen solutions. The test mixture was tested in a ratio of 5:1 COMP A in five different cell types which included the following: SK-MEL28, human hepatocytes, HUVEC, C32, and NHEM cells. Cells were seeded into 96-well plates and cultured in medium containing 10% bovine serum. […]
as §5

[4] = MTT reduction; conditions: human; for CC50 at 24 h: MTT TC50, SK-MEL28, 24 HR
Experimental: Tetrazolium Dye Reduction: 3-[4,5-dimethylthiazol-2-yl]
as §6
Experimental Protocol: The test compounds were shipped on dry ice for testing. The compounds were stored frozen at −80° C. until needed. Dosing solutions were prepared in complete culture medium. SK-MEL28, human hepatocytes, HUVEC, C32, and NHEM cells were used as the test systems. Cells were seeded into 96-well plates and allowed to equilibrate for approximately 48 hr. Following the equilibration period the cells were exposed to the test compound mix at concentrations of COMP A (μg/mL)=(250:50), (125:25), (25:12.5), (12.5:2.5), (2.5:1.25), (1.25:0.25), and (0.25:0.05). Solubility was determined by Nephalometry techniques immediately after dosing and prior to harvesting the cells at 24 hr. Following the exposure period, the cells or their supernatant (culture medium) were analyzed for changes in cell proliferation, membrane leakage, mitochondrial function, oxidative stress, and apoptosis. The resultant exposure concentration response curves were graphed and analyzed for determining the concentration that produced a half maximal response or TC50.

[5] = SK-MEL28, 24 HR, COMP A (LOW) / controls #2
[6] = SK-MEL28, 72 HR, COMP A (LOW) / controls #2

SMILES | CC50 at 24 h ([1]; SK-MEL28 cells) | CC50 at 72 h ([1]; SK-MEL28 cells) | Percent Change in Total GSH ([2]; SK-MEL28, 24 HR) | Percent Change in Total GSH [2, 5] | Percent Change in Total GSH [2, 6] | Membrane Lipid Peroxidation ([3]; SK-MEL28, 24 HR) | Membrane Lipid Peroxidation [3, 5] | Membrane Lipid Peroxidation [3, 6] | CC50 at 24 h ([4]; SK-MEL28 cells) | CC50 at 24 h ([4]; SK-MEL28 cells, run #2) | CC50 at 72 h ([4]; SK-MEL28 cells, MTT TC50, SK-MEL28, 72 HR, run #2) | CC50 at 72 h [1] | CC50 at 72 h [4]
CC[C@@]1(O)C(=O)OCc2c1cc1n(c2=O)Cc2cc3ccccc3nc2-1 [CAMPTOTHECIN, Camptothecin] | 10 µM | 100 nM | −46.0% | −57.9% | −88.8% | 0 | 0 | 1 (1 = Modest increase with maximum values ≦15 pg/mL) | 241 µM | 249 µM | 100 nM |  | 
C=C(C)[C@H]1Cc2c(ccc3c2O[C@@H]2COc4cc(OC)c(OC)cc4[C@@H]2C3=O)O1 [ROTENONE, Rotenone] |  |  | 52.8% | 49.9% | 85.1% | 3 (3 = Concentration related increase with a maximum value ≧30 pg/mL) | 2 (2 = Concentration related increase with maximum values ≧15 pg/mL) | 3 (3 = Concentration related increase with a maximum value ≧30 pg/mL) |  |  |  | 100 nM | 200 nM
